Test results: patent publication EP0445920A2, “Use of ethoxy phenoxy acetic acid derivatives against diabetes” (IMPERIAL CHEMICAL INDUSTRIES PLC, priority 1990, dated 1991)

System: oral glucose tolerance in rats
Assay: Oral glucose tolerance test in fasted rats (blood glucose by glucose oxidase method)
Type: in vivo, Male, Alderley Park, Wistar rats
Details: rats fasted 24 hours, Glibenclamide 5 mg/kg p.o. at -2.0 h, Compound A 0.1 mg/kg p.o. at -0.5 h, M ± SEM, eight rats/group; for Glucose levels, time relative to oral glucose (minutes) 0: 0 min (before oral glucose load 1g/kg); for Glucose levels, time relative to oral glucose (minutes) 20: 20 min after oral glucose load 1g/kg; for Glucose levels, time relative to oral glucose (minutes) 60: 60 min after oral glucose load 1g/kg; for Glucose levels, time relative to oral glucose (minutes) 120: 120 min after oral glucose load 1g/kg
Method: Effects of (S)-4-[2-(2-hydroxy-3-phenoxypropylamino)ethoxy]-N-(2-methoxyethyl)phenoxyacetamide on glibenclamide induced improvements in oral glucose tolerance in rats Glibenclamide is a sulphonylurea commonly used for the treatment of non-insulin dependent diabetes. The effects of (S)-4-[2-(2-hydroxy-3-phenoxypropylamino)ethoxy]-N-(2-methoxyethyl) phenoxyacetamide (compound A) were assessed on glibenclamide induced improvements in oral glucose tolerance. Male, Alderley Park, Wistar rats (weight range 125-150 g) were caged in groups of four in a room with normal lighting, at a temperature of 22°C. The animals were allowed free access to water and chow during an acclimatisation period of five days. At the end of this period the rats were fasted for 24 hours. After fasting a group of 8 rats was anaesthetised and a cardiac blood sample taken. The remaining rats were dosed orally according to the schedule below: [table] Glibenclamide and Compound A were dissolved in an aqueous 0.025% solution of polysorbate. The dosage volume was 0.5 ml/100 g body weight. Thirty minutes after dosing according to the schedule above a further eight rats from each group were bled. The remaining rats were then given an oral glucose load (1g/kg) dosed as a 20% solution of D-glucose (0.5 ml/100 g). Groups of eight rats for each treatment were then anaesthetised and bled 20, 60 and 120 minutes after the glucose load. Glucose levels were assayed using a glucose oxidase method on a KDK glucose analyser (Clandon).

| SMILES | Glucose levels, time relative to oral glucose (minutes) 0 | Glucose levels, time relative to oral glucose (minutes) 20 | Glucose levels, time relative to oral glucose (minutes) 60 | Glucose levels, time relative to oral glucose (minutes) 120 |
| --- | --- | --- | --- | --- |
| COc1ccc(Cl)cc1C(=O)NCCc1ccc(S(=O)(=O)NC(=O)NC2CCCCC2)cc1 [Glibenclamide] | 3.16 ± 0.13 mmol | 7.77 ± 0.45 mmol | 4.4 ± 0.38 mmol | 3.67 ± 0.27 mmol |
| COCCNC(=O)COc1ccc(OCCNC[C@H](O)COc2ccccc2)cc1 [Compound A, (S)-4-[2-(2-hydroxy-3-phenoxypropylamino)ethoxy]-N-(2-methoxyethyl) phenoxyacetamide] | 2.77 ± 0.10 mmol | 6.16 ± 0.23 mmol | 5.37 ± 0.28 mmol | 4.99 ± 0.20 mmol |
